Legend:
Format in all cases: in vivo
Cyperus difformis = test: Test Example 3: herbicidal effect by application to foliage (Wagner pot, water depth 0.1-0.5 cm); details: Nineteenth Table; application to foliage; application herbicide amount 320 g/ha
Outline: (§1)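 A small sprayer delivered the diluted emulsion uniformly to foliage at the chosen rate in g/ha, 14 days after sowing in Wagner pots held at 25–30 °C. Outcome: 0–5 herbicidal-ratio score read three weeks post-treatment.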

[1] = system: Echinochloa crus-galli var. crus-galli; test: as above; details: Nineteenth Table; application to foliage; application herbicide amount 320 g/ha
Outline: as §1

Leptochloa chinensis = test: as above; details: Nineteenth Table; application to foliage; application herbicide amount 320 g/ha
Outline: as §1

Abutilon theophrasti = test: Test Example 4: herbicidal effect by application to foliage (diluvial soil, plastic box); details: application to foliage, 320 g/ha
Outline: (§2)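 Read-out is a 0–5 visual grade of herbicidal ratio (5: ≥90%, almost withered; 0: ≤5%) taken three weeks after treatment. Compound was applied as a diluted emulsion to stem and leaf parts of 14-day greenhouse-grown plants (25° C. to 30° C.) at rates expressed as g/ha.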

Alopecurus myosuroides = test: as above; details: application to foliage, 320 g/ha
Outline: as §2

Amaranthus retroflexus = test: as above; details: application to foliage, 320 g/ha
Outline: as §2

Apera spica-venti. = test: as above; details: application to foliage, 320 g/ha
Outline: as §2

Avena fatua = test: as above; details: application to foliage, 320 g/ha
Outline: as §2

Chenopodium album = test: as above; details: application to foliage, 320 g/ha
Outline: as §2

Digitaria ciliaris = test: as above; details: application to foliage, 320 g/ha
Outline: as §2

[2] = system: Echinochloa crus-galli var. crus-galli; test: as above; details: application to foliage, 320 g/ha
Outline: as §2

Galium spurium = test: as above; details: application to foliage, 320 g/ha
Outline: as §2

Lolium multiflorum Lam. = test: as above; details: application to foliage, 320 g/ha
Outline: as §2

Setaria viridis = test: as above; details: application to foliage, 320 g/ha
Outline: as §2

Stellaria media = test: as above; details: application to foliage, 320 g/ha
Outline: as §2

Veronica persica = test: as above; details: application to foliage, 320 g/ha
Outline: as §2

[3] = system: Beta vulgaris ssp. vulgaris; test: Test Example 4: effect on crop by application to foliage (diluvial soil, plastic box); details: application to foliage, 320 g/ha
Outline: as §2

Brassica campestris L. = test: as above; details: application to foliage, 320 g/ha
Outline: as §2

Glycine max = test: as above; details: application to foliage, 320 g/ha
Outline: as §2

Triticum aestivum = test: as above; details: application to foliage, 320 g/ha
Outline: as §2

Zea mays = test: as above; details: application to foliage, 320 g/ha
Outline: as §2

[4] = system: directly sowed Oryza sativa; test: as above; details: application to foliage, 320 g/ha
Outline: as §2

Compound	E (herbicidal effect grade) (Cyperus difformis)	H (herbicidal effect grade) [1]	D (herbicidal effect grade) (Leptochloa chinensis)	herbicidal effect, M (Abutilon theophrasti) (Abutilon theophrasti)	herbicidal effect, J (Alopecurus myosuroides) (Alopecurus myosuroides)	herbicidal effect, N (Amaranthus retroflexus) (Amaranthus retroflexus)	herbicidal effect, L (Apera spica-venti.) (Apera spica-venti.)	herbicidal effect, I (Avena fatua) (Avena fatua)	herbicidal effect, O (Chenopodium album) (Chenopodium album)	herbicidal effect, F (Digitaria ciliaris) (Digitaria ciliaris)	herbicidal effect, H (Echinochloa crus-galli var. crus-galli) [2]	herbicidal effect, Q (Galium spurium) (Galium spurium)	herbicidal effect, K (Lolium multiflorum Lam.) (Lolium multiflorum Lam.)	herbicidal effect, G (Setaria viridis) (Setaria viridis)	herbicidal effect, P (Stellaria media) (Stellaria media)	herbicidal effect, R (Veronica persica) (Veronica persica)	effect on crop, f (Beta vulgaris ssp. vulgaris) [3]	effect on crop, g (Brassica campestris L.) (Brassica campestris L.)	effect on crop, c (Glycine max) (Glycine max)	effect on crop, e (Triticum aestivum) (Triticum aestivum)	also measured
CCSc1nnc2c(C(=O)Nc3nnnn3CCOC)ccc(C(F)(F)F)n12 [2-098]	5 (Herbicidal ratio of 90% or more (almost completely withered))	5 (Herbicidal ratio of 90% or more (almost completely withered))	5 (Herbicidal ratio of 90% or more (almost completely withered))	4 (Herbicidal ratio of 70% or more and less than 90%)	2 (Herbicidal ratio of 20% or more and less than 40%)	5 (Herbicidal ratio of 90% or more (almost completely withered))	4 (Herbicidal ratio of 70% or more and less than 90%)	4 (Herbicidal ratio of 70% or more and less than 90%)	5 (Herbicidal ratio of 90% or more (almost completely withered))	5 (Herbicidal ratio of 90% or more (almost completely withered))	5 (Herbicidal ratio of 90% or more (almost completely withered))	4 (Herbicidal ratio of 70% or more and less than 90%)	3 (Herbicidal ratio of 40% or more and less than 70%)	5 (Herbicidal ratio of 90% or more (almost completely withered))	5 (Herbicidal ratio of 90% or more (almost completely withered))	4 (Herbicidal ratio of 70% or more and less than 90%)	5 (Herbicidal ratio of 90% or more (almost completely withered))	4 (Herbicidal ratio of 70% or more and less than 90%)	1 (Herbicidal ratio of 5% or more and less than 20%)	3 (Herbicidal ratio of 40% or more and less than 70%)	effect on crop, b (Zea mays) (Zea mays): 4 (Herbicidal ratio of 70% or more and less than 90%); effect on crop, d (directly sowed Oryza sativa) [4]: 4 (Herbicidal ratio of 70% or more and less than 90%)
CCSc1nnc2c(C(=O)Nc3ncnn3C)ccc(C(F)(F)F)n12 [4-003]	0 (Herbicidal ratio of 5% or less (almost no effect))	4 (Herbicidal ratio of 70% or more and less than 90%)	3 (Herbicidal ratio of 40% or more and less than 70%)	4 (Herbicidal ratio of 70% or more and less than 90%)	0 (Herbicidal ratio of 5% or less (almost no effect))	2 (Herbicidal ratio of 20% or more and less than 40%)	1 (Herbicidal ratio of 5% or more and less than 20%)	0 (Herbicidal ratio of 5% or less (almost no effect))	5 (Herbicidal ratio of 90% or more (almost completely withered))	2 (Herbicidal ratio of 20% or more and less than 40%)	4 (Herbicidal ratio of 70% or more and less than 90%)	1 (Herbicidal ratio of 5% or more and less than 20%)	0 (Herbicidal ratio of 5% or less (almost no effect))	1 (Herbicidal ratio of 5% or more and less than 20%)	4 (Herbicidal ratio of 70% or more and less than 90%)	2 (Herbicidal ratio of 20% or more and less than 40%)	4 (Herbicidal ratio of 70% or more and less than 90%)	1 (Herbicidal ratio of 5% or more and less than 20%)	0 (Herbicidal ratio of 5% or less (almost no effect))	0 (Herbicidal ratio of 5% or less (almost no effect))	effect on crop, b (Zea mays) (Zea mays): 0 (Herbicidal ratio of 5% or less (almost no effect)); effect on crop, d (directly sowed Oryza sativa) [4]: 4 (Herbicidal ratio of 70% or more and less than 90%)

Source: patent US9708314B2, “Heterocyclic amide compound” (NISSAN CHEMICAL INDUSTRIES, LTD., priority 2013, dated 2017)
